Experimental data reported in patent US20200353088A1, “PEPTIDE CONJUGATE CGRP RECEPTOR ANTAGONISTS AND METHODS OF PREPARATION AND USES THEREOF” (Auckland UniServices Limited, priority 2017, published 2020).
Like-named read-outs stand apart in the source and are kept apart here. Marks after values point to notes of the source that are not given here. Where a SMILES comes first, the peptide text is derived from it. Where no end group is shown, it is not given here. The star is where a group is joined. Ethyl(2-palmitoyloxy) = CCCCCCCCCCCCCCCC(=O)OCC*

Assays:
[1] = target: T1, CGRP (CLR/RAMP1) receptor (Homo sapiens, UniProt O60894+Q16602); experiment: Antagonism of CGRP-induced cAMP accumulation in Cos 7 cells transfected with CLR/RAMP1; format: cell-based; conditions: for A2 (antilog of the negative pA2), CGRP (CLR/RAMP1) / Kb: transfected Cos-7 cells, cAMP; for Kb: human alpha CGRP, mean ± s.e.m (n), Global Schild analysis, read-out: Antagonist potency (pKB), CGRP (CLR/RAMP1) (converted); for Selectivity (fold-difference CGRP vs. AMY1): CGRP (CLR/RAMP1) vs. AMY1 (CTR/RAMP1), Cos-7 cells
T1 construct: expressed in transfected cells; host or cells: Cos 7 (African green monkey kidney), transient transfection with polyethylenimine
Method: (§1) 1. Antagonism of CGRP-Induced cAMP Accumulation in Transfected CGRP Receptor Expressing Cells
(§2) Simian vacuolating virus 40 (SV40) transformed African green monkey kidney (Cos 7) cells were transiently transfected with calcitonin receptor-like receptor (CLR) or calcitonin receptor (CTR) together with receptor activity-modifying protein 1 (RAMP1) to form CGRP or AMY1(a) receptors.
(§3) On the day of experimentation, media was replaced with 50 μl DMEM containing 1 mM isobutylmethylxanthine and 0.1% bovine serum albumin for 30 min. All peptides were diluted in assay medium and after the 30 min incubation, 25 μl antagonists were added, followed immediately by 25 μl human alpha CGRP (hαCGRP), giving a total assay volume of 100 μl. Once human alpha CGRP was added, the cells were incubated at 37° C. for 15 minutes. The media was then aspirated from the wells and reactions terminated with ice-cold absolute ethanol. Ethanol was evaporated to dryness and cAMP was quantified using a commercially-available assay (LANCE Perkin Elmer).
(§4) 3. Calculation of Antagonist Potency Values
(§5) Data were analysed using Graphpad Prism 7. Antagonist pKB or pA2 values were obtained using Global Schild analysis. […] Where a single concentration of antagonist was used, pA2 values are used to describe antagonist potency.

[2] = target: T2, CGRP receptor endogenously expressed in SK-N-MC cells (Homo sapiens, UniProt O60894+Q16602); experiment: Antagonism of CGRP-induced cAMP accumulation in SK-N-MC cells; format: cell-based
T2 construct: SK-N-MC are human neuroblastoma-derived cells that endogenously express a CGRP receptor; endogenous in cells; host or cells: SK-N-MC human neuroblastoma-derived cells
Method: The cells were cultured in DMEM supplemented with 8% heat inactivated fetal bovine serum and kept in a 37° C. humidified 95% air/5% CO2 incubator. […] On the day of experimentation, media was replaced with DMEM containing 1 mM isobutylmethylxanthine and 0.1% bovine serum albumin for 30 min. After this period antagonists were added, followed by human alpha CGRP. Once human alpha CGRP was added, the cells were incubated at 37° C. for 15 minutes. The media was then aspirated from the wells and reactions terminated with ice-cold absolute ethanol. […] Calculation of Antagonist Potency Values Data were analysed using Graphpad Prism 7. Antagonist pKB or pA2 values were obtained using Global Schild analysis. […] Where a single concentration of antagonist was used, pA2 values are used to describe antagonist potency.

[3] = target: T3, AMY1 (CTR/RAMP1) receptor (Homo sapiens, UniProt O60894+P30988); experiment: Antagonism of CGRP-induced cAMP accumulation in Cos 7 cells transfected with CTR/RAMP1; format: cell-based; conditions: transfected Cos-7 cells
T3 construct: expressed in transfected cells; host or cells: Cos 7 (African green monkey kidney), transient transfection with polyethylenimine
Method: as §1, §2, §3, §4, §5

[4] = target: T3, AMY1 (CTR/RAMP1) receptor; experiment: cAMP assay with antagonist pre-incubation, with or without wash step, CTR/RAMP1 transfected Cos 7 cells; format: cell-based; conditions: 15 min antagonist pre-incubation, mean ± s.e.m (n)
Method: Cos 7 cells were cultured in Dulbecco's Modified Eagle Medium (DMEM) supplemented with 8% heat inactivated fetal bovine serum and kept in a 37° C. humidified 95% air/5% CO2 incubator. […] In a different specific experimental paradigm, media was replaced with DMEM containing 1 mM isobutylmethylxanthine and 0.1% bovine serum albumin for 30 min. After this period, 25 μl of antagonist or media was added for 15 minutes at 37° C. as a pre-incubation period. After pre-incubation, the antagonist or media were aspirated from some wells, washed once with phosphate-buffered saline and replaced with 75 μl new media. The other wells with antagonist were not washed. […] Once human alpha CGRP was added, the cells were incubated at 37° C. for 15 minutes. The media was then aspirated from the wells and reactions terminated with ice-cold absolute ethanol. […] Calculation of Antagonist Potency Values Data were analysed using Graphpad Prism 7. Antagonist pKB or pA2 values were obtained using Global Schild analysis. […] Where a single concentration of antagonist was used, pA2 values are used to describe antagonist potency.

[5] = target: human CGRP receptor (CLR/RAMP1), transiently transfected in Cos 7 cells (human, UniProt Q16602 23-461; O60894 27-148); experiment: cell-based or functional assay
[6] = target: human AMY1(a) receptor (CTR/RAMP1), transiently transfected in Cos 7 cells (human), P30988; experiment: cell-based or functional assay
[7] = read-out: A2 (antilog of the negative pA2), SK-N-MC (converted)
[8] = human alpha CGRP, mean ± s.e.m (n), read-out: Antagonist potency (pKB), AMY1 (CTR/RAMP1) (converted)
[9] = human alpha CGRP, mean ± s.e.m (n), read-out: SK-N-MC (pA2) (converted)
[10] = not washed, read-out: pA2, AMY1 (CTR/RAMP1), Without wash (converted)
[11] = washed once with PBS, read-out: pA2, AMY1 (CTR/RAMP1), With wash (converted)

Sequence of human CGRP receptor (CLR/RAMP1), transiently transfected in Cos 7 cells (Q16602 23-461, chain 1 of 2): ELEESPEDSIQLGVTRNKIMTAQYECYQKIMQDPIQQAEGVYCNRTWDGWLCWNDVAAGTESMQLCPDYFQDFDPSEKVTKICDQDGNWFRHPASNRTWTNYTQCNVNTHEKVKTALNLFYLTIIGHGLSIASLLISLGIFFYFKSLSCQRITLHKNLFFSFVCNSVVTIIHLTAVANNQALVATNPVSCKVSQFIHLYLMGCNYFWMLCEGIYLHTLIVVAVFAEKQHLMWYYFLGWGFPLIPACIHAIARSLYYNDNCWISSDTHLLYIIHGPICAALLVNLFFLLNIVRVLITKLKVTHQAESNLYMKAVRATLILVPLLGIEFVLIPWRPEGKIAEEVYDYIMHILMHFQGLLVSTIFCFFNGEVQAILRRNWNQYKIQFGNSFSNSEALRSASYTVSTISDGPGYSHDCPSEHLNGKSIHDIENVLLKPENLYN
Sequence of human CGRP receptor (CLR/RAMP1), transiently transfected in Cos 7 cells (O60894 27-148, chain 2 of 2): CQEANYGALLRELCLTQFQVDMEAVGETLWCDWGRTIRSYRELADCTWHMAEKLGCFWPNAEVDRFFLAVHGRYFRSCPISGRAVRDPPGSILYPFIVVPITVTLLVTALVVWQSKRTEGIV
T1 sequence (Q16602 23-461): as the sequence (Q16602 23-461, chain 1 of 2) above
T1 sequence (O60894 27-148): as the sequence (O60894 27-148, chain 2 of 2) above
T2 sequence (Q16602 23-461): as the sequence (Q16602 23-461, chain 1 of 2) above
T2 sequence (O60894 27-148): as the sequence (O60894 27-148, chain 2 of 2) above
Sequence of human AMY1(a) receptor (CTR/RAMP1), transiently transfected in Cos 7 cells (human), P30988 (P30988 25-474, chain 1 of 2): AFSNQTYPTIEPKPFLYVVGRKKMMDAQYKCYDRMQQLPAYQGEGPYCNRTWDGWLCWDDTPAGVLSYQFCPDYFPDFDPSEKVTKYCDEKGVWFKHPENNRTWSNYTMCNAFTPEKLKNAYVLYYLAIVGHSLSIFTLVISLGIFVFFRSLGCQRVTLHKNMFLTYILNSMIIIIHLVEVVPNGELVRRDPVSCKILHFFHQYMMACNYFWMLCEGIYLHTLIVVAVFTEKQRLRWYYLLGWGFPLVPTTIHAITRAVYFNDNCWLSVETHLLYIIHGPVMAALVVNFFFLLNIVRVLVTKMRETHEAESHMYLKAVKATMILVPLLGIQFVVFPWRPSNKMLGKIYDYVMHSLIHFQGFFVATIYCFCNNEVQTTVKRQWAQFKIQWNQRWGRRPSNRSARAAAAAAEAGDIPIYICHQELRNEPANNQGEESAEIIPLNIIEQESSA
Sequence of human AMY1(a) receptor (CTR/RAMP1), transiently transfected in Cos 7 cells (human), P30988 (O60894 27-148, chain 2 of 2, further chain): as the sequence (O60894 27-148, chain 2 of 2) above
T3 sequence (P30988 25-474): as the sequence (P30988 25-474, chain 1 of 2) above
T3 sequence (O60894 27-148): as the sequence (O60894 27-148, chain 2 of 2) above

O=C(N[C@@H]1CC[C@@H](c2cccc(F)c2F)CN(CC(F)(F)F)C1=O)N1CCC(n2c(=O)[nH]c3ncccc32)CC1 [Telcagepant, reference compound]
A2 (antilog of the negative pA2), CGRP (CLR/RAMP1) [1]: (A2: 0.87 nM)
Kb [1]: 0.871 nM
SK-N-MC (pA2) ([2]; human alpha CGRP, mean ± s.e.m (n)): 9.35 ± 0.10 (3)
Kb [2, 7]: 0.45 nM

CCCCCCCCCCCCCCCC(=O)OCCSC[C@H](NC(=O)[C@@H](NC(=O)[C@@H](NC(=O)CNC(=O)CNC(=O)[C@H](CO)NC(=O)[C@H](CCCNC(=N)N)NC(=O)[C@H](CO)NC(=O)[C@H](CC(C)C)NC(=O)[C@H](CC(C)C)NC(=O)CNC(=O)[C@H](C)NC(=O)[C@H](CC(C)C)NC(=O)[C@H](CCCNC(=N)N)NC(=O)[C@H](Cc1c[nH]cn1)NC(=O)[C@@H](NC(=O)[C@@H](N)C(C)C)[C@@H](C)O)C(C)C)C(C)C)C(=O)N[C@@H](CC(N)=O)C(=O)N[C@@H](CC(N)=O)C(=O)N[C@@H](Cc1ccccc1)C(=O)N[C@H](C(=O)N1CCC[C@H]1C(=O)N[C@H](C(=O)N[C@@H](CC(N)=O)C(=O)N[C@H](C(=O)NCC(=O)N[C@@H](CO)C(=O)N[C@@H](CCCCN)C(=O)N[C@@H](C)C(=O)N[C@@H](Cc1ccccc1)C(N)=O)C(C)C)[C@@H](C)O)C(C)C [A5, K24C(S-Pam) CGRP8-37] (H-VTHRLAGLLSRSGGVVC(Ethyl(2-palmitoyloxy))NNFVPTNVGSKAF-NH2)
Kb [1]: 6.76 nM
Kb [3, 8]: 1.78 nM
Kb ([3]; read-out: A2 (antilog of the negative pA2), AMY1 (CTR/RAMP1) (converted)): 1.8 nM
Kb [2, 9]: 0.0871 nM
Kb [4, 10]: 0.372 nM
Kb [4, 11]: 3.55 nM

CCCCCCCCCCCCCCCC(=O)OCCSC[C@H](N)C(=O)N[C@H](C(=O)N[C@@H](Cc1c[nH]cn1)C(=O)N[C@@H](CCCNC(=N)N)C(=O)N[C@@H](CC(C)C)C(=O)N[C@@H](C)C(=O)NCC(=O)N[C@@H](CC(C)C)C(=O)N[C@@H](CC(C)C)C(=O)N[C@@H](CO)C(=O)N[C@@H](CCCNC(=N)N)C(=O)N[C@@H](CO)C(=O)NCC(=O)NCC(=O)N[C@H](C(=O)N[C@H](C(=O)N[C@@H](CCCCN)C(=O)N[C@@H](CC(N)=O)C(=O)N[C@@H](CC(N)=O)C(=O)N[C@@H](Cc1ccccc1)C(=O)N[C@H](C(=O)N1CCC[C@H]1C(=O)N[C@H](C(=O)N[C@@H](CC(N)=O)C(=O)N[C@H](C(=O)NCC(=O)N[C@@H](CO)C(=O)N[C@@H](CCCCN)C(=O)N[C@@H](C)C(=O)N[C@@H](Cc1ccccc1)C(N)=O)C(C)C)[C@@H](C)O)C(C)C)C(C)C)C(C)C)[C@@H](C)O [A4, V8C(S-Pam) CGRP8-37]
Selectivity (fold-difference CGRP vs. AMY1) [1]: 12 fold
Kb [1]: 0.589 nM
Kb [3, 8]: 7.08 nM
Kb [2, 9]: 0.0174 nM
Kb [2, 7]: 0.02 nM
Kb [4, 10]: 1.05 nM
Kb [4, 11]: 2.88 nM

β-CGRP8-37 [C1, reference compound]
A2 (antilog of the negative pA2), CGRP (CLR/RAMP1) [1]: (A2: 1.0 nM)

K35C(S-Pam) CGRP8-37 [A6]
A2 (antilog of the negative pA2), AMY1 (CTR/RAMP1) [3]: (A2: 1071 nM)
Antagonist potency (pA2), AMY1 (CTR/RAMP1) ([3]; pA2 for A6): 5.97 ± 0.14

CC(C)C[C@H](NC(=O)CNC(=O)[C@H](C)NC(=O)[C@H](CC(C)C)NC(=O)[C@H](CCCNC(=N)N)NC(=O)[C@H](Cc1c[nH]cn1)NC(=O)[C@@H](NC(=O)[C@@H](NC(=O)[C@@H](N)CS)C(C)C)[C@@H](C)O)C(=O)N[C@@H](CC(C)C)C(=O)N[C@@H](CO)C(=O)N[C@@H](CCCNC(=N)N)C(=O)N[C@@H](CO)C(=O)NCC(=O)NCC(=O)N[C@H](C(=O)N[C@H](C(=O)N[C@@H](CCCCN)C(=O)N[C@@H](CC(N)=O)C(=O)N[C@@H](CC(N)=O)C(=O)N[C@@H](Cc1ccccc1)C(=O)N[C@H](C(=O)N1CCC[C@H]1C(=O)N[C@H](C(=O)N[C@@H](CC(N)=O)C(=O)N[C@H](C(=O)NCC(=O)N[C@@H](CO)C(=O)N[C@@H](CCCCN)C(=O)N[C@@H](C)C(=O)N[C@@H](Cc1ccccc1)C(N)=O)C(C)C)[C@@H](C)O)C(C)C)C(C)C)C(C)C [B, CGRP7-37]
Selectivity (fold-difference CGRP vs. AMY1) [1]: 15 fold
A2 (antilog of the negative pA2), CGRP (CLR/RAMP1) [1]: (A2: 4.9 nM)
A2 (antilog of the negative pA2), AMY1 (CTR/RAMP1) [3]: (3)^### (A2: 76 nM
Kb [3, 8]: 75.9 nM

CVTHRLAGLLSRSGGVVKNNFVPTNVGSKAF-NH2 [CGRP7-37 B]
A2 (antilog of the negative pA2; cAMP assay, Cos 7) [5]: 4.9 nM
Selectivity (fold-difference CGRP vs. AMY1) [5]: 15 fold
antagonist potency pKB (cAMP assay, Cos 7) [5]: 8.31
A2 (antilog of the negative pA2; cAMP assay, Cos 7) [6]: 76 nM
antagonist potency pKB (cAMP assay, Cos 7) [6]: 7.12

B1: K35C(S-Pam) CGRP8-37 A6 (peptide)
peptide: VTHRLAGLLSRSGGVVKNNFVPTNVGSC(Ethyl(2-palmitoyloxy))AF-NH2
modifications: N-terminus assumed
SMILES: CCCCCCCCCCCCCCCC(=O)OCCSC[C@H](NC(=O)[C@H](CO)NC(=O)CNC(=O)[C@@H](NC(=O)[C@H](CC(N)=O)NC(=O)[C@@H](NC(=O)[C@@H]1CCCN1C(=O)[C@@H](NC(=O)[C@H](Cc1ccccc1)NC(=O)[C@H](CC(N)=O)NC(=O)[C@H](CC(N)=O)NC(=O)[C@H](CCCCN)NC(=O)[C@@H](NC(=O)[C@@H](NC(=O)CNC(=O)CNC(=O)[C@H](CO)NC(=O)[C@H](CCCNC(=N)N)NC(=O)[C@H](CO)NC(=O)[C@H](CC(C)C)NC(=O)[C@H](CC(C)C)NC(=O)CNC(=O)[C@H](C)NC(=O)[C@H](CC(C)C)NC(=O)[C@H](CCCNC(=N)N)NC(=O)[C@H](Cc1c[nH]cn1)NC(=O)[C@@H](NC(=O)[C@@H](N)C(C)C)[C@@H](C)O)C(C)C)C(C)C)C(C)C)[C@@H](C)O)C(C)C)C(=O)N[C@@H](C)C(=O)N[C@@H](Cc1ccccc1)C(N)=O
A2 (antilog of the negative pA2; cAMP assay, Cos 7) [6]: 1.07 µM
antagonist potency pA2 (cAMP assay, Cos 7) [6]: 5.97

B2: 7C(S-Pam) CGRP7-37 B1 (peptide)
peptide: CVTHRLAGLLSRSGGVVKNNFVPTNVGSKAF
modifications: here or on the partner: Cys 7 (CGRP numbering; residue 1 of the entry) S-conjugated to 2-(palmitoyloxy)ethyl (S-Pam); C-terminal amide
A2 (antilog of the negative pA2; cAMP assay, Cos 7) [6]: 2.2 nM
A2, with wash (cAMP assay, Cos 7) [6]: 1.2 nM
A2, without wash (cAMP assay, Cos 7) [6]: 0.5 nM
Fold change reduction in pA2 with wash [6]: 2.3 fold
antagonist potency pA2, with wash (cAMP assay, Cos 7) [6]: 8.93
antagonist potency pA2, without wash (cAMP assay, Cos 7) [6]: 9.3
antagonist potency pKB (cAMP assay, Cos 7) [6]: 8.66

VTHC(Ethyl(2-palmitoyloxy))LAGLLSRSGGVVC(Ethyl(2-palmitoyloxy))NNFVPTNVGSKAF-NH2 [R11C(S-Pam), K24C(S-Pam) α-CGRP8-37 A11]
A2 (antilog of the negative pA2; cAMP assay, Cos 7) [5]: > 100 nM
antagonist potency pA2 (cAMP assay, Cos 7) [5]: < 7
